Tests used:
[1] = test system: LPS-induced pulmonary inflammation; assay: LPS-induced pulmonary inflammation: BALF cytokines, synergy analysis; format: in vivo, C57BL/B6 mice; settings: HCQ 25 mg/kg, alone or combined, observed; for IL-1β, relative inhibition of cytokine release (BALF) / MCP-1, relative inhibition of cytokine release (BALF) / TNF-α, relative inhibition of cytokine release (BALF): CBD 1 mg/kg; for CXCL-1, relative inhibition of cytokine release (BALF): CBD 10 mg/kg
Method: (§1) Male C57BL/B6 mice weighing 10-20 g were used. Vehicle and active agents (i.e., CBD and hydroxychloroquine) alone or in combination were administered intraperitoneally (IP) at 1 hour before LPS (˜80 mg/kg) was administered intratracheally. 24 hours after LPS injection, mice were anaesthetized with pentoparbital and 0.5 mL of PBS was administered twice through a tracheal cannula after which approximately 0.6 mL of broncheoalveolar lavage fluid (BALF) was obtained. The BALF was assayed for IL-1β, TNF-α, MCP-1(MCAF) and CXCL-1 by Luminex. ANOVA followed by Dunnett's test was applied for comparison between vehicle and treatment groups. p<0.05 was considered significant.
For synergy analysis, data were baseline subtracted using the cytokine levels of sham treated mice (i.e., no LPS injection), before normalising the values for each cytokine relative to maximum values across the groups. The normalised values were used to calculate the relative inhibition where a value of 1 represents complete inhibition and a value of 0 represents no inhibition. Synergy was calculated using the statistical methods described elsewhere herein.
Drug synergy was determined using the Bliss Independence method where the predicted effect of the drug combination is calculated using the equation: […]

[2] = test system: LPS-induced pulmonary inflammation; assay: LPS-induced pulmonary inflammation: lung histopathology lesion score; format: in vivo, C57BL/B6 mice
Method: as §1
In a separate test group of animals with pulmonary inflammation induced as detailed above, lungs were harvested at termination (five lobes per lung) and fixed in 10% neutral buffered formalin for histopathology. Samples were sectioned at 4-6 μm and stained with hematoxylin and eosin (H&E) to examine inflammatory lesions as described by Shackleford et al. (2002, Toxicologic Pathology, 30(1): 93-96). Briefly, a score of 0 corresponds to not present, and a score of 5 indicates a severe/high number of lesions. Scores were averaged across lobes for each animal and then across animals for each treatment group.

TNBS-induced colitis = assay: TNBS-induced colitis; format: in vivo, BALB/c mice; settings: for Relative reduction in Colon to body weight ratio / Relative reduction in Total Colitis Index / Macroscopic damage score, relative reduction / Stool consistency score, relative reduction / MPO, relative reduction: HCQ 2.5 mg/kg, alone or combined; for Relative reduction in Total Colitis Index: histology of distal colon; for Macroscopic damage score, relative reduction / Stool consistency score, relative reduction / MPO, relative reduction: observed; for MPO, relative reduction: colon tissue
From the text: Male BALB/c were used as an in vivo model of colitis, induced by intracolonic administration of 2,4,6-trinitrobenzene sulfonic acid (TNBS) in 50% ethanol, as previously described by Antoniou et al. (2016, Annals of Medicine and Surgery, 11: 9-15). Briefly, the ethanol disrupts the intestinal barrier, permitting TNBS to interact with colon proteins. Interaction of TNBS with high-molecular weight proteins renders them immunogenic, leading to Th1 mediated inflammation, which is causative of symptoms include inconsistent stool formation and blood in the faeces.
Vehicle and active agents (i.e., CBD and hydroxychloroquine) alone or in combination were administered intraperitoneally (IP) once a day starting from Day 1 (i.e., 24 hours before TNBS) to Day 4, for a total of 4 consecutive days (Days 1-4). On the Day of TNBS challenge (i.e., Day 2), test articles and vehicle were given 2 hrs before TNBS.
Colon tissues were harvested in all animals at termination. Colon samples were taken at 0.5, 2, and 3.5 cm from the anus, fixed in formalin, and then embedded in paraffin blocks. Four-micrometer tissue sections were cut and stained with H&E for histological analysis in accordance with the method of Dieleman et al. (1998, Clinical Experimental Immunology, 114: 385-391). Histological criteria included: abnormalities of mucosal architecture, extent of inflammation, erosion or ulceration, epithelial regeneration, and the percentage involvement by the disease process. The scoring was based on the findings of the observers by examining three sections from each colon per animal. Total score for colitis (Total Colitis Index) were added, resulting in a combined histological score range from 0 to 60.
Other endpoint measures of stool consistency score (i.e., 0—normal stools, 1, soft but still formed stools, 2—very soft stools, 3—diarrhoea), faecal occult blood score (i.e., 0-negative hemoccult, 1—positive hemoccult, 2—blood traces in stool visible, 3—rectal bleeding), colon weight, colon macroscopic damage score (a composite of adhesions, strictures, ulcers/inflammations and wall thickness) and myeloperoxidase levels in the colon tissue were also assessed. The data from each of these endpoints was baseline subtracted using the equivalent measures from sham treated mice (i.e., no TNBS) and reduction in any measure calculated as a relative reduction. Synergy was calculated using the statistical methods described elsewhere herein.

[3] = test system: collagen-induced arthritis; assay: Collagen-induced arthritis; format: in vivo, Lewis rats; design: key to Clinical score Day 24, relative reduction / Pannus score, relative reduction / Total histology score, relative reduction: fractional reduction vs vehicle control, sham-baseline subtracted; settings: for Clinical score Day 24, relative reduction / Pannus score, relative reduction / Paw volume Day 24, relative reduction / Total histology score, relative reduction / Relative reduction in serum cytokine levels: IL-1β / Relative reduction in serum cytokine levels: IL-6: CBD 1 mg/kg, HCQ 2.5 mg/kg, alone or combined; for Clinical score Day 24, relative reduction / Pannus score, relative reduction / Paw volume Day 24, relative reduction / Total histology score, relative reduction: observed
Method: Female Lewis rats were challenged with porcine type-II collagen with Freund's adjuvant on Day 1 (0.2 mg/0.2 mL/rat) by subcutaneous injection at the base of the tail to induce arthritis. A booster injection at 0.1 mg/0.1 mL/rat) was administered on Day 7. On Day 16, rats were allocated into groups of six based on hind paw volume, with animals allocated into groups to provide a similar distribution of hind paw volumes.
Vehicle and active agents (i.e., CBD and hydroxychloroquine) alone or in combination were administered intraperitoneally (IP) once a day starting from Day 17 to Day 30, i.e., for a total of 14 consecutive days.
Disease was assessed by measuring hind paw volume with plethysmometer and using a qualitative severity score system as outlined in Table 32 on Day 1, 7, 10, 14, 16, 18, 20, 22, 24, 26, 28 and 30.
Post-termination on Day 30, blood was collected from all rats and analysed for levels of the inflammatory cytokines IL-1β, IL-6 and TNF-α by ELISA. Both hind paws were harvested, weighed and formalin-fixed for histopathology. Tissue was assessed to evaluate cartilage and bone destruction by pannus formation and mononuclear cell infiltration in synovial tissues according to the scoring matrices set out in Tables 33 and 34. A total histology score, being the sum of the pannus formation and mononuclear cell infiltration score, was also calculated.
For synergy analysis, data were baseline subtracted using sham treated […] (i.e., no collagen injection), before normalising the values relative to vehicle control. Synergy was calculated using the statistical methods described elsewhere herein.

[4] = Solubility of formulations for in vivo analysis (visual observation); format: physicochemical
From the text: Cannabidiol (CBD) and hydroxychloroquine (HCQ), were purchased by Pharmacology Discovery Services Taiwan, Ltd. The formulations are summarised in Table 3.

[5] = CBD 10 mg/kg, HCQ 25 mg/kg, alone or combined, pulmonary lesion score
[6] = HCQ 25 mg/kg alone vs CBD 1 mg/kg + HCQ 2.5 mg/kg
[7] = HCQ 25 mg/kg alone vs CBD 1 mg/kg + HCQ 2.5 mg/kg, serum

Structure (SMILES) | IL-1β, relative inhibition of cytokine release (BALF) [1] | MCP-1, relative inhibition of cytokine release (BALF) [1] | TNF-α, relative inhibition of cytokine release (BALF) [1] | CXCL-1, relative inhibition of cytokine release (BALF) [1] | Relative reduction in lesion score [2, 5] | Relative reduction in Colon to body weight ratio (TNBS-induced colitis; CBD 1 mg/kg) | Relative reduction in Total Colitis Index (TNBS-induced colitis; CBD 1 mg/kg) | Macroscopic damage score, relative reduction (TNBS-induced colitis; CBD 1 mg/kg) | Stool consistency score, relative reduction (TNBS-induced colitis; CBD 1 mg/kg) | MPO, relative reduction (TNBS-induced colitis; CBD 1 mg/kg) | Clinical score Day 24, relative reduction [3] | Pannus score, relative reduction [3] | Paw volume Day 24, relative reduction [3] | Total histology score, relative reduction [3] | Relative reduction in serum cytokine levels: IL-1β ([3]; serum) | Relative reduction in serum cytokine levels: IL-6 ([3]; serum) | also measured
C=C(C)[C@@H]1CCC(C)=C[C@H]1c1c(O)cc(CCCCC)cc1O [CBD, cannabidiol] | 0.03 | 0.07 | 0.23 | 0.14 | 0.29 | 0.373 | 0.25 | 0.10 | 0.17 | 0.34 | 0.21 | 0.07 | 0.04 | 0.11 | 0.31 | 0.50 | Relative reduction in lesion score ([2]; CBD 1 mg/kg): 0.18; Colon tissue histology (H&E, 100×), FIG. 3 (TNBS-induced colitis; CBD 1 mg/kg): inflammatory cell infiltration in submucosal edema
CCN(CCO)CCCC(C)Nc1ccnc2cc(Cl)ccc12 (stereo not shown) [HCQ] | 0.20 | 0.09 | 0.14 | 0.35 | 0.37 | 0.287 | 0.27 | 0.05 | 0.00 | 0.00 | 0.18 | 0.07 | 0.04 | 0.15 | 0.37 | 0.51 | Relative reduction in lesion score ([2]; HCQ 2.5 mg/kg): 0.21; Colon tissue histology (H&E, 100×), FIG. 3 (TNBS-induced colitis; hydroxychloroquine 2.5 mg/kg): mild abnormality, cyctic dilation and aberrant crypts; Clinical score Day 24, reduction in disease severity [3, 6]: 0.21; Clinical score Day 30, reduction in disease severity [3, 6]: 0.26; Mononuclear cell infiltration, reduction in disease severity [3, 6]: 0.24; Pannus score, reduction in disease severity [3, 6]: 0.28; Paw volume Day 24, reduction in disease severity [3, 6]: 0.10; Paw volume Day 30, reduction in disease severity [3, 6]: 0.20; Total histology score, reduction in disease severity [3, 6]: 0.26; IL-1B, reduction [3, 7]: 0.25; IL-6, reduction [3, 7]: 0.36; Solubil. [4]: S

— patent US20230128114A1, “METHODS AND COMPOSITIONS FOR TREATING OR PREVENTING AN INFLAMMATORY CONDITION” (priority 2020, published 2023)
